This note sets out measurements from US20240360113A1, “AMINOARYL-INTEGRIN AGONISTS COMPOUNDS” (Texas Heart Institute, priority 2021, published 2024).

In one assay the target is T1, αLβ2/ICAM-1 (Homo sapiens, UniProt P05107+P20701).
T1 construct: The Jurkat (VCAM-1 assays) and HSB (ICAM-1 assays) cell lines were obtained from American Type Culture Collection; endogenous in cells; host or cells: HSB (ATCC)
Kind of assay: Static cell adhesion assay, HSB cells on ICAM-1 (LFA-1; LAD). In kind it is cell-based. The note with it: RFU of compound / RFU of THI0349, both at the same concentration. On the procedure:
(§1) For in vitro cell adhesion assays, compounds were dissolved in DMSO to make a series of stock solutions such that a 1:100 dilution in assay buffer would yield the desired final working concentrations in 1% DMSO (vehicle). Human VCAM-1 and ICAM-1 were purchased from R&D Systems (Minneapolis, MN). The Jurkat (VCAM-1 assays) and HSB (ICAM-1 assays) cell lines were obtained from American Type Culture Collection (Manassas, VA) and were maintained in recommended culture media.
(§2) Assays were performed as previously described in Vanderslice et al., (2010), Biochem Biophys Res Commun 400, 619-624; and Vanderslice et al., (2013) J Biol Chem 288, 19414-19428. VCAM-1 or ICAM-1 ligand in 50 μL of 50 mM Tris-HCl (pH 7.4), 150 mM NaCl, (TBS) was added to wells of a 96-well plate and allowed to coat overnight at 4° C. To maximize the window to evaluate agonist activity, a sub-optimal coating concentration of ligand was used, typically 0.5 and 5 μg/mL in 50 μL TBS for VCAM-1 and ICAM-1 respectively. This ligand concentration corresponded approximately to that which would yield <5% adhesion as determined by dose-response curves. Briefly, 2×10^6 cells were labeled for 30 minutes with calcein-AM (Molecular Probes), washed, resuspended in binding buffer, and added to triplicate wells of ligand-coated plates (2×10^5 cells/well) that had been blocked with 2% BSA. After a 30-minute incubation at 37° C., the plates were washed 3 times with binding buffer, the adherent cells were lysed, and fluorescence was measured on a Tecan Safire^2 plate reader. The binding buffer was PBS with 1 mM MgCl2, 50% FBS for α4β1/VCAM-1 assays and PBS with 2 mM MgCl2, 5 mM EGTA, 50% FBS for αLβ2/ICAM-1 assays. EC50 is defined as the concentration of compound required to achieve 50% of the maximal response.
In relation to LAD (Leukocyte Adhesion Deficiency), LFA-1 ratios are determined by dividing the relative fluorescence units (RFU) of each compound at a concentration of 3 μM over that of the reference standard of THI0349, also at 3 μM, (RFU Compound/RFU of THI0349). Log Ps were calculated by either Chemdraw® version 12 (CambridgeSoft) or ACD/Chemsketch® (ACD/Labs).

For a further assay, the target named is T2, α4β1/VCAM-1 (Homo sapiens, UniProt P05556+P13612).
T2 construct: The Jurkat (VCAM-1 assays) and HSB (ICAM-1 assays) cell lines were obtained from American Type Culture Collection; endogenous in cells; host or cells: Jurkat (ATCC)
T2 sequence (P13612 34-1032): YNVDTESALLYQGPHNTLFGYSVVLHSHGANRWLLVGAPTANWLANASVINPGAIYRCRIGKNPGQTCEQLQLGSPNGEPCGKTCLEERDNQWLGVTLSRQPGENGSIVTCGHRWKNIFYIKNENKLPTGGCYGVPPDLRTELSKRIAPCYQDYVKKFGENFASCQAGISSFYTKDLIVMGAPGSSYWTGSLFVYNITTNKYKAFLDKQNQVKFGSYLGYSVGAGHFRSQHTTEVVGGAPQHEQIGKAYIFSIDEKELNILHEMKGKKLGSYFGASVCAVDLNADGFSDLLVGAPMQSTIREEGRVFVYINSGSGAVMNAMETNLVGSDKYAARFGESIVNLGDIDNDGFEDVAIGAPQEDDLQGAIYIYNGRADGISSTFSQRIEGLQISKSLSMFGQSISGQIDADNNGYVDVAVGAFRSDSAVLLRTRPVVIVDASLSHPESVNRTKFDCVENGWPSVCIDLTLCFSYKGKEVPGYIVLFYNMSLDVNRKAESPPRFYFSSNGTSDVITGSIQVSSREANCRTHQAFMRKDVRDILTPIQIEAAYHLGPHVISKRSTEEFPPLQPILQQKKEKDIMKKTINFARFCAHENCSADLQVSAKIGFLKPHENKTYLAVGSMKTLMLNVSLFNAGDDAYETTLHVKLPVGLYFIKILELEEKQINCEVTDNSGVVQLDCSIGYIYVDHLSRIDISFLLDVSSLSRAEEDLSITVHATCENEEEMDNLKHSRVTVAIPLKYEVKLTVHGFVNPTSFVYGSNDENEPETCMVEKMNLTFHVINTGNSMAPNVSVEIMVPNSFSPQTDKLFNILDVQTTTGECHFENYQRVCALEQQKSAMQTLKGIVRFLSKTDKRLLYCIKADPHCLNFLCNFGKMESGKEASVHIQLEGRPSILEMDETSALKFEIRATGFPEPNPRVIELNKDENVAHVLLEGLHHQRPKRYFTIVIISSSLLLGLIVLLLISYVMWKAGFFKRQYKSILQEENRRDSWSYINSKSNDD
T2 sequence (P05556 21-798): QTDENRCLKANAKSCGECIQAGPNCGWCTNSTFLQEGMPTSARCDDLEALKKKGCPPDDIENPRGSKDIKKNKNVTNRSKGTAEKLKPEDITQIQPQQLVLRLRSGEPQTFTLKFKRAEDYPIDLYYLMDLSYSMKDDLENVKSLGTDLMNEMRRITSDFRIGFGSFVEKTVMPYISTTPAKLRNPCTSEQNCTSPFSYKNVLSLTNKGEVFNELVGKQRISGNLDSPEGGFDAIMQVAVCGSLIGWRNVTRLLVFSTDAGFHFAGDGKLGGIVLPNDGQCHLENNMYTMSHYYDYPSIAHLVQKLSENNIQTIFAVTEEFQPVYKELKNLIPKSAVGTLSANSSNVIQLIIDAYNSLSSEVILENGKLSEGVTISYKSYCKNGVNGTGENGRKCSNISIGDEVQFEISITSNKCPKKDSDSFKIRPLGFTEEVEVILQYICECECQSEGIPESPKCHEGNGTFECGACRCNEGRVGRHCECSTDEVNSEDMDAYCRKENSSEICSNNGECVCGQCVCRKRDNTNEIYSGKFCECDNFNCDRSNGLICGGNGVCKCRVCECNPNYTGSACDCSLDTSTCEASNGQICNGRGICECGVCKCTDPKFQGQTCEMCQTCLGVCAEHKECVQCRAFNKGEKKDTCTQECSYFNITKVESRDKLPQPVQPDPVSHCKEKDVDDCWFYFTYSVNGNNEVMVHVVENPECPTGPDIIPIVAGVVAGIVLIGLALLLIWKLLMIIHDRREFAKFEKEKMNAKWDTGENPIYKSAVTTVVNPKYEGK
The experiment in a line: Static cell adhesion assay, Jurkat cells on VCAM-1 (VLA-4 agonist activity). In kind it is cell-based. The note with it: EC50 relative to THI0349 (average 11 uM) run on the same plate; Jurkat cells, 50% FBS. Here is the method: as §1, §2

Structures are written as SMILES.

T1 sequence (P20701 26-1170): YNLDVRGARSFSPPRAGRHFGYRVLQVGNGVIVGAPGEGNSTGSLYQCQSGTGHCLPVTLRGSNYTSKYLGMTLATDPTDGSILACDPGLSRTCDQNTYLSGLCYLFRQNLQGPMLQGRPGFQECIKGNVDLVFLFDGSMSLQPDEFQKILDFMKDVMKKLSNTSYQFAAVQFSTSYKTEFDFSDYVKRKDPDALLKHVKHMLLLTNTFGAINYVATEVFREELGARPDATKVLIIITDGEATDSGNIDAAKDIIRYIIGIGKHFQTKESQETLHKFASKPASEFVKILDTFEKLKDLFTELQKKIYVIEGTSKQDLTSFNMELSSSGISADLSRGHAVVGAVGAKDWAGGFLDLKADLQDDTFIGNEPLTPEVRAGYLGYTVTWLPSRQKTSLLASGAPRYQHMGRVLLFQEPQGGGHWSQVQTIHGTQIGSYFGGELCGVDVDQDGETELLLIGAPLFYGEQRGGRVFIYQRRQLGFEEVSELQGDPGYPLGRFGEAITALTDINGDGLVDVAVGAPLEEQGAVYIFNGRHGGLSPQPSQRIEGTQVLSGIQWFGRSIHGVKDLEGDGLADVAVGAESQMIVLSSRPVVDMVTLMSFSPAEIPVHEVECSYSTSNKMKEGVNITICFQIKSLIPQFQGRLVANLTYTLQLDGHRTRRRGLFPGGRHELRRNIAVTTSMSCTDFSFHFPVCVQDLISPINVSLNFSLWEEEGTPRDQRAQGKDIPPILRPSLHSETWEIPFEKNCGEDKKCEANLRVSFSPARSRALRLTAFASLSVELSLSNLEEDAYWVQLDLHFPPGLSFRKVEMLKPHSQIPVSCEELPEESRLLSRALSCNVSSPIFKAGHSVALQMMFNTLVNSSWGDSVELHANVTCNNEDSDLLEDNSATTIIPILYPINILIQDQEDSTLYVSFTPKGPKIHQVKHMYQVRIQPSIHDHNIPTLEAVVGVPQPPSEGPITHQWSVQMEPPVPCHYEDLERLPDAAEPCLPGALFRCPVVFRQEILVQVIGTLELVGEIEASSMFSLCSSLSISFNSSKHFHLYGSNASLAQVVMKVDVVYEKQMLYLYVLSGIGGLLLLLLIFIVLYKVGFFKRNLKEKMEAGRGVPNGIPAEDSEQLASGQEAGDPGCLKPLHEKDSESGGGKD
T1 sequence (P05107 23-769): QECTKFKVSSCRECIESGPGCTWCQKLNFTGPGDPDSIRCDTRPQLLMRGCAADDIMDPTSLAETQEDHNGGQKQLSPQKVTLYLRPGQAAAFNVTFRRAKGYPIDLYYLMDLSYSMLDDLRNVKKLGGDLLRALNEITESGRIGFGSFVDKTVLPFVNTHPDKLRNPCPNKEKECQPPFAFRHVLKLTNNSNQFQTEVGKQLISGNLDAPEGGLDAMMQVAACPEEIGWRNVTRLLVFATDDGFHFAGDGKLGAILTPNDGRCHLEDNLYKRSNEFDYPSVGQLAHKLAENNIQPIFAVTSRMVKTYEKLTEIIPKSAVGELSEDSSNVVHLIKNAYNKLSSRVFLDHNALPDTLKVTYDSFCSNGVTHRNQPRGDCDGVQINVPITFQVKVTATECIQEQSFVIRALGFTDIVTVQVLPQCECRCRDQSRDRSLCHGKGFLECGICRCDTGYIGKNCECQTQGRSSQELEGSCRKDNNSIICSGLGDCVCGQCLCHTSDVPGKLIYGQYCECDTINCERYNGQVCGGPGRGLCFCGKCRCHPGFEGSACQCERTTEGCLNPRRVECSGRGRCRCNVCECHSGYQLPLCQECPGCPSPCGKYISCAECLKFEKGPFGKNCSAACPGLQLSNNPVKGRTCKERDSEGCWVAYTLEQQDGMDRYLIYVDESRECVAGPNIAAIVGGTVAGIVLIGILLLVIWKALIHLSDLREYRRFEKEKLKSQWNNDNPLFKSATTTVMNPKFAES

On to `COCCOc1cccc(CN(Cc2cccc(OC)c2)c2nc(CN3CCOCC3)cs2)c1` [Compound 74, N-(3-methoxybenzyl)-N-(3-(2-methoxyethoxy)benzyl)-4-(morpholinomethyl)thiazol-2-amine], for which the “LAD Raw Fluorescence Units against LFA-1; Dose 3 µM; Ratio of raw counts Compound/THI0349” value on αLβ2/ICAM-1 is recorded as 0.3. The “Group against VCAM” value at α4β1/VCAM-1 is recorded as “I (Group I maintains at least the same potency or better up to more than twice that of the EC50 of THI0349 ran on the same plate)”.
On the same counts, the results for `COc1cccc(CN(Cc2cccc(OC)c2)c2nc(COCCN3CCOCC3)co2)c1` [Compound 87, N,N-bis(3-methoxybenzyl)-4-((2-morpholinoethoxy)methyl)oxazol-2-amine] are 0.2 and “I (Group I maintains at least the same potency or better up to more than twice that of the EC50 of THI0349 ran on the same plate)”.
`CCOC(=O)c1coc(N(Cc2ccc(OC)cc2)Cc2ccc(OC)cc2)n1` [Compound 15, ethyl 2-(bis(4-methoxybenzyl)amino)oxazole-4-carboxylate]: on αLβ2/ICAM-1, the “LAD Raw Fluorescence Units against LFA-1; Dose 3 µM; Ratio of raw counts Compound/THI0349” value came out at 0.52. Besides, the “Group against VCAM” value on α4β1/VCAM-1 was “III (Group III more than five times the EC50 of THI0349)”.
For the compound `COc1cccc(CN(Cc2cccc(OC)c2)c2nc(C)cs2)c1` [Compound 29, N,N-bis(3-methoxybenzyl)-4-methylthiazol-2-amine], the “LAD Raw Fluorescence Units against LFA-1; Dose 3 µM; Ratio of raw counts Compound/THI0349” value at αLβ2/ICAM-1 is on record as 0.88. Further, at α4β1/VCAM-1, the “Group against VCAM” value is reported as “III (Group III more than five times the EC50 of THI0349)”.
On the same counts, the results for `COc1ccc(CN(Cc2ccc(OC)cc2)c2nc(CO)co2)cc1` [Compound 26, (2-(bis(4-methoxybenzyl)amino)oxazol-4-yl)methanol] are 0.79 and “I (Group I maintains at least the same potency or better up to more than twice that of the EC50 of THI0349 ran on the same plate)”.
On the same counts, the results for `COc1cccc(CN(Cc2cccc(OC)c2)c2nc(COCCOc3ccccc3)cs2)c1` [Compound 52, N,N-bis(3-methoxybenzyl)-4-((2-phenoxyethoxy)methyl)thiazol-2-amine] are 1.2 and “II (Group II is more than twice that of THI0349 but less than five times THI0349's EC50)”.
On the same counts, the results for `COc1cccc(CN(Cc2ccc(-n3cccn3)cc2)c2nc(C)cs2)c1` [Compound 98, N-(4-(1H-pyrazol-1-yl)benzyl)-N-(3-methoxybenzyl)-4-methylthiazol-2-amine] are 0.03 and “III (Group III more than five times the EC50 of THI0349)”.
`COc1ccc(CCCNC(=O)c2csc(N(Cc3cccc(OC)c3)Cc3cccc(OC)c3)n2)cc1` [Compound 23, 2-(bis(3-methoxybenzyl)amino)-N-(3-(4-methoxyphenyl)propyl)thiazole-4-carboxamide]: the “LAD Raw Fluorescence Units against LFA-1; Dose 3 µM; Ratio of raw counts Compound/THI0349” value at αLβ2/ICAM-1 turned out to be 0.85. For the same compound, the “Group against VCAM” value at α4β1/VCAM-1 is on record as “I (Group I maintains at least the same potency or better up to more than twice that of the EC50 of THI0349 ran on the same plate)”.
On the same counts, the results for `COc1cccc(CN(Cc2cccc(OC)c2)c2nc(COCCOCCOc3cccc(N(C)C)c3)cs2)c1` [Compound 41, 4-((2-(2-(3-(dimethylamino)phenoxy)ethoxy)ethoxy)methyl)-N,N-bis(3-methoxybenzyl)thiazol-2-amine] are 1.3 and “I (Group I maintains at least the same potency or better up to more than twice that of the EC50 of THI0349 ran on the same plate)”.
On the same counts, the results for `COc1cccc(CN(Cc2cccc(OC)c2)c2nc(COCCOCCOc3ccccc3)cs2)c1` [Compound 43, N,N-bis(3-methoxybenzyl)-4-((2-(2-phenoxyethoxy)ethoxy)methyl)thiazol-2-amine] are 0.80 and “I (Group I maintains at least the same potency or better up to more than twice that of the EC50 of THI0349 ran on the same plate)”.
On the same counts, the results for `COc1ccc(CCCNC(=O)c2coc(N(Cc3cccc(OC)c3)Cc3cccc(OC)c3)n2)cc1` [Compound 20, 2-(bis(3-methoxybenzyl)amino)-N-(3-(4-methoxyphenyl)propyl)oxazole-4-carboxamide] are 0.19 and “II (Group II is more than twice that of THI0349 but less than five times THI0349's EC50)”.
In the case of `COc1ccc(CCc2csc(N(Cc3cccc(OC)c3)Cc3cccc(OC)c3)n2)cc1` [Compound 71, N,N-bis(3-methoxybenzyl)-4-(4-methoxyphenethyl)thiazol-2-amine], the “LAD Raw Fluorescence Units against LFA-1; Dose 3 µM; Ratio of raw counts Compound/THI0349” value on αLβ2/ICAM-1 came out at 0.1. Also, the “Group against VCAM” value on α4β1/VCAM-1 is “III (Group III more than five times the EC50 of THI0349)”.
The matching figures for `COc1cccc(CN(Cc2cccc(N3CCOCC3)c2)c2nc(CN3CCOCC3)cs2)c1` [Compound 78, N-(3-methoxybenzyl)-N-(3-morpholinobenzyl)-4-(morpholinomethyl)thiazol-2-amine]: 0.4 and “II (Group II is more than twice that of THI0349 but less than five times THI0349's EC50)”.
The matching figures for `CCOC(=O)c1csc(N(Cc2cccc(OC)c2)Cc2cccc(-n3cccn3)c2)n1` [Compound 119, ethyl 2-((3-(1H-pyrazol-1-yl)benzyl)(3-methoxybenzyl)amino)thiazole-4-carboxylate]: 0.2 and “II (Group II is more than twice that of THI0349 but less than five times THI0349's EC50)”.
Regarding `COc1ccc(CCCNC(=O)c2cnc(N(Cc3cccc(OC)c3)Cc3cccc(OC)c3)o2)cc1` [Compound 22, 2-(bis(3-methoxybenzyl)amino)-N-(3-(4-methoxyphenyl)propyl)oxazole-5-carboxamide], at αLβ2/ICAM-1, the “LAD Raw Fluorescence Units against LFA-1; Dose 3 µM; Ratio of raw counts Compound/THI0349” value stood at 0.69. The “Group against VCAM” value on α4β1/VCAM-1 is given as “I (Group I maintains at least the same potency or better up to more than twice that of the EC50 of THI0349 ran on the same plate)”.
The matching figures for `CCOC(=O)c1csc(N(Cc2cccc(OC)c2)Cc2ccc3ncccc3c2)n1` [Compound 114, ethyl 2-((3-methoxybenzyl)(quinolin-6-ylmethyl)amino)thiazole-4-carboxylate]: 0.39 and “II (Group II is more than twice that of THI0349 but less than five times THI0349's EC50)”.
The matching figures for `CCOC(=O)c1coc(N(Cc2cccc(OCCOC)c2)Cc2cccc(OCCOC)c2)n1` [Compound 16, ethyl 2-(bis(3-(2-methoxyethoxy)benzyl)amino)oxazole-4-carboxylate]: 0.49 and “II (Group II is more than twice that of THI0349 but less than five times THI0349's EC50)”.
The matching figures for `COc1cccc(CN(Cc2cccc(OC)c2)c2nc(COCCN3CCCCC3)cs2)c1` [Compound 65, N,N-bis(3-methoxybenzyl)-4-((2-(piperidin-1-yl)ethoxy)methyl)thiazol-2-amine]: 0.29 and “I (Group I maintains at least the same potency or better up to more than twice that of the EC50 of THI0349 ran on the same plate)”.
Turning to `COc1cccc(CN(Cc2cccc(OC)c2)c2nc(COCCOCCOc3cccc(C#N)c3)cs2)c1` [Compound 45, 3-(2-(2-((2-(bis(3-methoxybenzyl)amino)thiazol-4-yl)methoxy)ethoxy)ethoxy)benzonitrile], the “LAD Raw Fluorescence Units against LFA-1; Dose 3 µM; Ratio of raw counts Compound/THI0349” value on αLβ2/ICAM-1 was 0.76. The “Group against VCAM” value at α4β1/VCAM-1 was “I (Group I maintains at least the same potency or better up to more than twice that of the EC50 of THI0349 ran on the same plate)”.
On the same counts, the results for `CCOC(=O)c1csc(N(Cc2cccc(OC)c2)CC(C)C)n1` [Compound 121, ethyl 2-(isobutyl(3-methoxybenzyl)amino)thiazole-4-carboxylate] are 0.18 and “III (Group III more than five times the EC50 of THI0349)”.
